{"source": "patent US12239643B2", "about": "“Therapeutic agent for inflammatory diseases, autoimmune diseases, fibrotic diseases, and cancer diseases” (MEIJI SEIKA PHARMA CO., LTD., priority 2018, dated 2025)", "key": {"IL-5": {"tested_on": "IL-5", "experiment": "Cytokine suppression using human peripheral blood mononuclear cells: IL-5", "type": "cell-based", "conditions": "human PBMC, CD3 antibody and CD28 antibody; read-out: IL-5 Inhibitory Activity, Human PBMC (Test Example 4)", "description": "First, peripheral blood mononuclear cells (PBMC) were separated from whole blood by specific gravity centrifugation. Then, the isolated peripheral blood mononuclear cells were added to RPMI-1640 medium (containing 10% fetal bovine serum, penicillin, streptomycin, L-glutamine, and 2-mercaptoethanol), and cultured in a 96-well plate at 37° C. under 5% CO2 for 0 to 1 hour. The test compound dissolved in dimethyl sulfoxide was added to each well, followed by further culture at 37° C. under 5% CO2 for 1 hour. A medium containing only dimethyl sulfoxide instead of the test compound was added to the control well. […]\nThe measurement results obtained by measuring the TNFα inhibitory activity and IL-5 inhibitory activity (50% inhibitory concentration) of the test compounds by the above method were evaluated in accordance with the following evaluated basis; A: less than 10 nM, B: 10 nM or more and less than 100 nM, and C: 100 nM or more. In addition, the measurement results obtained by measuring the IL-17A inhibitory activity, IL-23 inhibitory activity, IL-4 inhibitory activity, and IL-13 inhibitory activity (50% inhibitory concentration) of the test compounds were evaluated in accordance with the following evaluated basis; A: less than 500 nM, B: 500 nM or more and less than 5000 nM, and C: 5000 nM or more."}, "[1]": {"tested_on": "histamine-induced vascular hyperpermeability, Crl:CD1 (ICR) mice", "experiment": "Histamine-induced mouse vascular hyperpermeability model", "type": "in vivo", "conditions": "10 mg/kg orally, histamine intradermally", "description": "Evaluation was carried out using male Crl:CD1 (ICR) mice (6 to 7 weeks of age). First, before conducting the test, the hair on the back of the mice was shaved with a small hair clipper under isoflurane anesthesia (an appropriate amount of about 3% with an inhalation isoflurane anesthesia machine). Next, the mice were orally administered with 10 mg/kg (10 mL/kg) of the test compound dissolved or suspended in 0.5% w/v methylcellulose (0.5% MC), and intravenously administered with 0.4% Evans blue saline (10 mL/kg) after 1 to 4 hours, and approximately 2 minutes later, 15 mM histamine saline was intradermally administered to the dorsal neck as a vascular hyperpermeability substance (20 μL/site). […] The absorption value (620/670 nm) of the supernatant after centrifugation was measured with a plate reader, and the average absorption value of the blank group was subtracted therefrom. Using the resultant as the absorption value of each tissue lysate, the vascular permeability suppression rate was calculated by the following formula. […]\nThe measurement results obtained by measuring the vascular permeability suppression rate of the test compound by the above method were evaluated in accordance with the following evaluated basis; A: 90% or more, B: 80% or more and less than 90%, and C: less than 80%. […]"}, "[2]": {"tested_on": "HCT-116 (colorectal cancer)", "experiment": "Antitumor activity: growth inhibition of HCT-116", "type": "cell-based", "conditions": "Homo sapiens, 120 h; HCT-116, culturing for 5 days; read-out: 50% growth inhibitory concentration", "description": "As antitumor activity, 50% growth inhibitory concentration of various cancer cells (CEM-C1 (blood cancer (leukemia)), SU-DHL-4 (blood cancer (lymphoma)), A549 (lung cancer), HCT-116 (colorectal cancer), and Daoy (brain tumor)) was calculated as follows. First, each of the above cancer cells was seeded on a 384-well plate and cultured overnight at 37° C. under 5% CO2. After that, the test compound was added at various concentrations on the next day, and each number of cells was measured after culturing for 5 days. The 50% growth inhibitory concentration was defined as the test compound concentration at which the number of cells measured is an intermediate value between the number of cells after culture for 5 days under the same conditions without the addition of the test compound and the number of cells at the time of seeding (before the start of culture). The measurement results obtained by measuring the 50% growth inhibitory concentration of the test compound by the above method were evaluated in accordance with the following evaluated basis; A: less than 10 μM, B: 10 μM or more and less than 50 μM, and C: 50 μM or more. As a result of using apremilast as the test compound, the evaluation was C in all cancer cells. On the other hand, as a result of using the compound obtained in Example 248 as the test compound, the evaluation was A in all cancer cells."}}}
{"smiles": "CC(C)(O)C(F)(F)Oc1ccc(-c2nccs2)c2oc(N3CC4CC(C3)N4)nc12", "note": "[Example 248, 1-((2-(3,6-Diazabicyclo[3.1.1]heptan-3-yl)-7-(thiazol-2-yl)benzo[d]oxazol-4-yl)oxy)-1,1-difluoro-2-methylpropan-2-ol]", "values": [{"measurement": "IC50", "setting": "IL-5", "value": "< 0.01", "unit": "µM"}, {"measurement": "vascular permeability suppression rate", "setting": "[1]", "value": "A (A: 90% or more)"}, {"measurement": "IC50", "setting": "[2]", "value": "< 10", "unit": "µM"}]}
{"smiles": "CCOc1cc([C@@H](CS(C)(=O)=O)N2C(=O)c3cccc(NC(C)=O)c3C2=O)ccc1OC", "note": "[apremilast, reference compound]", "values": [{"measurement": "IC50", "setting": "IL-5", "value": "> 0.1", "unit": "µM"}, {"measurement": "vascular permeability suppression rate", "setting": "[1]", "value": "C (C: less than 80%)"}, {"measurement": "IC50", "setting": "[2]", "value": "≥ 50", "unit": "µM"}]}
